# Laboratory results taken from PMC11965660, “Isobavachalcone ameliorates Alzheimer disease pathology by autophagy-mediated clearance of amyloid beta and inhibition of NLRP3 inflammasome in primary astrocytes and 5x-FAD mice” (Frontiers in Pharmacology, 2025).
# Tests used:
# Aβ42 = experiment: Aβ estimation in plasma by ELISA; format: in vivo, 5x-FAD mice; details: 25 and 50 mg/kg, vs untreated 5x-FAD control
# From the text: Hemizygous 5x-FAD transgenic mice (B6.Cg-Tg(APPSwFlLon, PSEN1*M146L*L286V) 6799Vas/Mmjax; MMRRC Strain: 034848-JAX) on congenic C57BL/6J genetic background were used for experiments. The 5x-FAD mice were genotyped using APP-specific qPCR probes to detect the transgene as per the protocol of Jackson Laboratory. Six months old 5x-FAD mice were randomly divided into three groups (n = 5), based on their body weights, with three males and two females in each group. We used mixed-cohort of males and females for our study to exclude any gender biased effect of IBC. Also, AD symptoms are more pronounced in females than in males ([Aggarwal and Mielke, 2023]), making it possible that males and females respond differently to the drug and treatment. Considering this, it is important to show effect of IBC on both sexes. At this age, Aβ deposition and neuroinflammation has already progressed in these mice. We have used IBC as a curative drug rather than a preventive drug. Prior to the initiation of the study, all the animals were acclimatized for 1 week under standard laboratory conditions; animals were drug naive with no prior procedures performed. All testing were performed from 1 to 4 p.m. […]
# After the end of the experiment, blood was collected from the retinal orbital plexus of mice in EDTA-coated vials. […] The levels of Aβ in the plasma were measured by using the protein-specific ELISA kit.
# [1] = system: autophagy pathway proteins; experiment: Immunoblotting of autophagy pathway proteins in primary astrocytes; format: cell-based, C57BL/6J mice
# Experimental: Primary astrocytes were cultured from C57BL/6J (Jax:000664) mice pups with the approval of Institutional Animal Ethics Committee (IAEC) of CSIR-Indian Institute of Integrative Medicine (IIIM), Jammu, under IAEC number 287/80/2/2022 and 305/81/8/2022. The astrocytes were isolated from the brain of 3–4 days-old mice pups and were grown in 10% FBS-supplemented DMEM media. Briefly, pups were sacrificed through decapitation and sterilized with 70% ethanol. Brain was exposed and isolated. Olfactory lobes and cerebellum were removed with fine blade. The cortical region separated was collected in incomplete media (media without fetal bovine serum) and cut into small pieces. After that, these cortices were incubated at 37°C in 0.25% trypsin for 30 min, with gentle shaking after every 10 min. Trypsin activity was neutralized with complete media and cells were collected using a 70-micron cell strainer followed by centrifugation at 300 g for 5 min. The pellet was dissolved in fresh media and cells were grown in cell culture flasks and were maintained at 37°C in a CO2 incubator. Microglia and oligodendrocytes were separated from the underlying astrocyte layer after 6-7 days by shaking the flask for 6 h at 240 rpm. Cultures astrocytes within 2-4 passage were used for all the experiments.
# Cellular lysates were prepared using radio immuno precipitation assay (RIPA) buffer for protein analysis. Briefly, the cell pellet was dissolved in RIPA buffer containing sodium fluoride, sodium orthovanadate, phenyl methyl sulfonyl fluoride (PMSF) and 1% protease inhibitor cocktail for 1 h with vertexing sample every 15 min. The supernatant was collected after high-speed centrifugation of samples for 20 min at 4°C. For analysis of proteins in mice hippocampi, the hippocampi isolated from mice brains was immediately washed with saline and stored in liquid nitrogen. For lysates preparation, tissue was homogenized in RIPA buffer substituted with sodium fluoride, sodium orthovanadate, phenyl methyl sulfonyl fluoride and 1% protease inhibitor cocktail. Total protein was measured using Bradford assay. Proteins were separated using SDS-PAGE and then transferred from gel to PVDF membrane. The protein of interest was labeled with a specific primary antibody overnight at 4°C. Further, the blot was incubated with corresponding HRP-conjugated secondary antibody for 1 h at room temperature. The band were visualized in the Genaxy Chemi Doc imaging system (Make: Syngene, Maryland, USA; Model: G: BOX, XT-4). Densitometry analysis of all the immunoblots was performed by using ImageJ software. Band density of proteins was normalized with β-actin. The phosphorylated proteins were normalized with their total forms.
# 5x-FAD mice = experiment: Open field test; format: in vivo; details: 25 and 50 mg/kg oral, vs 5x-FAD control
# From the text: Hemizygous 5x-FAD transgenic mice (B6.Cg-Tg(APPSwFlLon, PSEN1*M146L*L286V) 6799Vas/Mmjax; MMRRC Strain: 034848-JAX) on congenic C57BL/6J genetic background were used for experiments. The 5x-FAD mice were genotyped using APP-specific qPCR probes to detect the transgene as per the protocol of Jackson Laboratory. Six months old 5x-FAD mice were randomly divided into three groups (n = 5), based on their body weights, with three males and two females in each group. We used mixed-cohort of males and females for our study to exclude any gender biased effect of IBC. Also, AD symptoms are more pronounced in females than in males ([Aggarwal and Mielke, 2023]), making it possible that males and females respond differently to the drug and treatment. […]
# To check the effect of IBC on the behavior of 5x-FAD mice, open field test (OFT), rotarod (Make; Ugo Basile, rota-rod for mice 7650) and radial arm maze (Make; Ugo Basile) tests were performed. […] After acclimatizing mice with rotarod for 5 days, their latency to fall was calculated on the day of analysis. […] Distance traveled, speed, time spent in corner and center zones and mobile episodes were recorded through an automated video tracking system using AnyMaze software. […] The movement of mice was tracked with the help of automated AnyMaze software connected with a tracking camera and various memory retention parameters were assessed.
smiles,measurement,setting,value
"CC(C)=CCc1c(O)ccc(C(=O)/C=C/c2ccc(O)cc2)c1O [IBC, isobavachalcone]",Aβ42 in blood plasma,Aβ42,reduced levels
same,ATG5 level,[1]; 24 h,upregulated
same,ATG7 level,[1]; 24 h,upregulated
same,BECN1 expression,[1]; 24 h,did not show any change
same,FIP200 phosphorylation,[1]; 24 h,increased phosphorylation
same,MTOR level,[1]; 24 h,no change
same,ULK1 phosphorylation,[1]; 24 h,phosphorylated at Ser 317
same,pLKB1 (Ser 428) level,[1]; 24 h,no change
same,AMPK phosphorylation (Thr 172),"[1]; 24 h, 5, 10 and 20 μM",concentration-dependent increase
same,BCL2 level,"[1]; 24 h, 5, 10 and 20 μM",marked decline
same,LC3B-II level,"[1]; 24 h, 5, 10 and 20 μM",significant increase
same,pCAMKK2 (Ser 511) level,"[1]; 24 h, 5, 10 and 20 μM",significantly upregulated
same,SQSTM1 level,"[1]; 24 h, 10 and 20 μM",reducing levels
same,exploratory behavior in open field,5x-FAD mice,improved exploratory behavior
